The test system of the experiment is recombinant NL4-3 virus (Renilla luciferase) in MT-2 cells. In words: HIV cell culture assay (antiviral activity, luciferase readout in infected MT-2 cells). The experiment is classed as cell-based. In outline:
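EC50 derived via median-effect equation from luciferase activity in MT-2 cells after 4–5 day infection, compound serially diluted. Virus: recombinant NL4-3 with Renilla luciferase replacing part of nef, made in 293T cells.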

The mark [1] stands for this setting: Renilla, NL43, read-out: Activity, antiviral activity class, recombinant NL4-3 Renilla luciferase virus in MT-2 cells.
Setting [2] is: Renilla, NL43, recombinant NL4-3 Renilla luciferase virus in MT-2 cells.

Molecules are shown by their SMILES. Where two headings read alike, the source gives them in different places.

For `CN(C(=O)[C@H](Cc1ccccc1)NC(=O)NS(=O)(=O)c1ccccc1-c1cccc(O)c1)c1ccc2c(c1)OCO2` [Example 125, (S)—N-(benzo[d][1,3]dioxol-5-yl)-2-(3-((3′-hydroxy-[1,1′-biphenyl]-2-yl)sulfonyl)ureido)-N-methyl-3-phenylpropanamide], under setting [1], the EC50 is 1000 to 10000 nM.
Turning to `COc1ccc(-c2ccccc2S(=O)(=O)NC(=O)N[C@@H](Cc2ccccc2)C(=O)N(C)c2ccc3c(c2)OCO3)cn1` [Example 126, (S)—N-(benzo[d][1,3]dioxol-5-yl)-2-(3-((2-(6-methoxypyridin-3-yl)phenyl)sulfonyl)ureido)-N-methyl-3-phenylpropanamide], the EC50 under setting [1] was in the range of 10000 to 100000 nM.
Take `CN(C(=O)[C@H](Cc1ccccc1)NC(=O)NS(=O)(=O)c1ccccc1-c1cncnc1)c1ccc2c(c1)OCO2` [Example 127, (S)—N-(benzo[d][1,3]dioxol-5-yl)-N-methyl-3-phenyl-2-(3-((2-(pyrimidin-5-yl)phenyl)sulfonyl)ureido)propanamide]: the EC50 is, setting by setting: under setting [1], 10000 to 100000 nM; under setting [2], 21700 nM.
As to `CN(C(=O)[C@H](Cc1ccccc1)NC(=O)NS(=O)(=O)c1ccccc1-c1cccnc1)c1ccc2c(c1)OCO2` [Example 128, (S)—N-(benzo[d][1,3]dioxol-5-yl)-N-methyl-3-phenyl-2-(3-((2-(pyridin-3-yl)phenyl)sulfonyl)ureido)propanamide], the EC50 under setting [1] fell in the range of 1000 to 10000 nM.
For the compound `COc1ncccc1-c1ccccc1S(=O)(=O)NC(=O)N[C@@H](Cc1ccccc1)C(=O)N(C)c1ccc2c(c1)OCO2` [Example 129, (S)—N-(benzo[d][1,3]dioxol-5-yl)-2-(3-((2-(2-methoxypyridin-3-yl)phenyl)sulfonyl)ureido)-N-methyl-3-phenylpropanamide], the EC50 is, setting by setting: under setting [1], 1000 to 10000 nM; under setting [2], 5520 nM.
`COc1ncc(-c2ccccc2S(=O)(=O)NC(=O)N[C@@H](Cc2ccccc2)C(=O)N(C)c2ccc3c(c2)OCO3)cn1` [Example 130, (S)—N-(benzo[d][1,3]dioxol-5-yl)-2-(3-((2-(2-methoxypyrimidin-5-yl)phenyl)sulfonyl)ureido)-N-methyl-3-phenylpropanamide]: the EC50 under setting [1] was in the range of 1000 to 10000 nM.
Same read-out and setting: the result for `CN(C(=O)[C@H](Cc1ccccc1)NC(=O)NS(=O)(=O)c1ccccc1-c1ccc(C(N)=O)cc1)c1ccc2c(c1)OCO2` [Example 131, (S)-2′-(N-((1-(benzo[d][1,3]dioxol-5-yl(methyl)amino)-1-oxo-3-phenylpropan-2-yl)carbamoyl)sulfamoyl)-[1,1′-biphenyl]-4-carboxamide] reads 10000 to 100000 nM; that for `CN(C(=O)[C@H](Cc1ccccc1)NC(=O)NS(=O)(=O)c1ccccc1-c1ccsc1)c1ccc2c(c1)OCO2` [Example 132, (S)—N-(benzo[d][1,3]dioxol-5-yl)-N-methyl-3-phenyl-2-(3-((2-(thiophen-3-yl)phenyl)sulfonyl)ureido)propanamide], 10000 to 100000 nM.
Consider `CN(C(=O)[C@H](Cc1ccccc1)NC(=O)NS(=O)(=O)c1ccccc1-c1cnn(C)c1)c1ccc2c(c1)OCO2` [Example 133, (S)—N-(benzo[d][1,3]dioxol-5-yl)-N-methyl-2-(3-((2-(1-methyl-1H-pyrazol-4-yl)phenyl)sulfonyl)ureido)-3-phenylpropanamide], for which the EC50 (read-out: Activity, antiviral activity class, recombinant NL4-3 Renilla luciferase virus in MT-2 cells) was in the range of 100 to 1000 nM.
Turning to `C=C(C)c1ccccc1S(=O)(=O)NC(=O)N[C@@H](Cc1ccccc1)C(=O)N(C)c1ccc2c(c1)OCO2` [Example 134, (S)—N-(benzo[d][1,3]dioxol-5-yl)-N-methyl-3-phenyl-2-(3-((2-(prop-1-en-2-yl)phenyl)sulfonyl)ureido)propanamide], the EC50 under setting [1] was 1000 to 10000 nM.
In the case of `CC(C)c1ccccc1S(=O)(=O)NC(=O)N[C@@H](Cc1ccccc1)C(=O)N(C)c1ccc2c(c1)OCO2` [Example 135, (S)—N-(benzo[d][1,3]dioxol-5-yl)-2-(3-((2-isopropylphenyl)sulfonyl)ureido)-N-methyl-3-phenylpropanamide], the EC50 under setting [1] lay in the range of 100 to 1000 nM.
The same measure, in the same setting: the result for `C=Cc1ccccc1S(=O)(=O)NC(=O)N[C@@H](Cc1ccccc1)C(=O)N(C)c1ccc2c(c1)OCO2` [Example 136, (S)—N-(benzo[d][1,3]dioxol-5-yl)-N-methyl-3-phenyl-2-(3-((2-vinylphenyl)sulfonyl)ureido)propanamide] reads below 100 nM.
Same read-out and setting: the result for `C/C=C\c1ccccc1S(=O)(=O)NC(=O)N[C@@H](Cc1ccccc1)C(=O)N(C)c1ccc2c(c1)OCO2` [Example 137, (S,Z)—N-(benzo[d][1,3]dioxol-5-yl)-N-methyl-3-phenyl-2-(3-((2-(prop-1-en-1-yl)phenyl)sulfonyl)ureido)propanamide] reads 100 to 1000 nM.
In the case of `C=Cc1cccc(S(=O)(=O)NC(=O)N[C@@H](Cc2ccccc2)C(=O)N(CC)c2ccc(OC)cc2)c1` [Example 138, (S)—N-ethyl-N-(4-methoxyphenyl)-3-phenyl-2-(3-((3-vinylphenyl)sulfonyl)ureido)propanamide], the EC50 under setting [1] was below 100 nM and the EC50 under setting [2] was 50 nM.
In the case of `C=C(C)c1cccc(S(=O)(=O)NC(=O)N[C@@H](Cc2ccccc2)C(=O)N(CC)c2ccc(OC)cc2)c1` [Example 139, (S)—N-ethyl-N-(4-methoxyphenyl)-3-phenyl-2-(3-((3-(prop-en-2-yl)phenyl)sulfonyl)ureido)propanamide], the EC50 under setting [1] is below 100 nM.
Same read-out and setting: the result for `C/C=C\c1cccc(S(=O)(=O)NC(=O)N[C@@H](Cc2ccccc2)C(=O)N(CC)c2ccc(OC)cc2)c1` [Example 140] reads below 100 nM; that for `CCc1cccc(S(=O)(=O)NC(=O)N[C@@H](Cc2ccccc2)C(=O)N(CC)c2ccc(OC)cc2)c1` [Example 141, (S)—N-ethyl-2-(3-((3-ethylphenyl)sulfonyl)ureido)-N-(4-methoxyphenyl)-3-phenylpropanamide], below 100 nM.
With `CCCc1cccc(S(=O)(=O)NC(=O)N[C@@H](Cc2ccccc2)C(=O)N(CC)c2ccc(OC)cc2)c1` [Example 142, (S)—N-ethyl-N-(4-methoxyphenyl)-3-phenyl-2-(3-((3-propylphenyl)sulfonyl)ureido)propanamide], the EC50 runs as follows: under setting [1], below 100 nM; under setting [2], 60 nM.
For `CCN(C(=O)[C@H](Cc1ccccc1)NC(=O)NS(=O)(=O)c1cccc(C(C)C)c1)c1ccc(OC)cc1` [Example 143, (S)—N-ethyl-2-(3-((3-isopropylphenyl)sulfonyl)ureido)-N-(4-methoxyphenyl)-3-phenylpropanamide], the EC50 under setting [1] was below 100 nM.
Turning to `CCc1ccc(C)c(S(=O)(=O)NC(=O)N[C@@H](Cc2ccccc2)C(=O)N(CC)c2ccc(OC)cc2)c1` [Example 144, (S)—N-ethyl-2-(3-((5-ethyl-2-methylphenyl)sulfonyl)ureido)-N-(4-methoxyphenyl)-3-phenylpropanamide], the EC50 reads like this: under setting [1], 100 to 1000 nM; under setting [2], 620 nM.
Consider `CCCc1ccccc1S(=O)(=O)NC(=O)N[C@@H](Cc1ccccc1)C(=O)N(C)c1ccc2c(c1)OCO2` [Example 145, (S)—N-(benzo[d][1,3]dioxol-5-yl)-N-methyl-3-phenyl-2-(3-((2-propylphenyl)sulfonyl)ureido)propanamide], for which the EC50 under setting [1] was 100 to 1000 nM.
As for `CCc1ccccc1S(=O)(=O)NC(=O)N[C@@H](Cc1ccccc1)C(=O)N(C)c1ccc2c(c1)OCO2` [Example 146, (S)—N-(benzo[d][1,3]dioxol-5-yl)-2-(3-((2-ethylphenyl)sulfonyl)ureido)-N-methyl-3-phenylpropanamide], the EC50 under setting [1] is below 100 nM.
On the same count and under the same terms, the result for `CCN(C(=O)[C@H](Cc1ccccc1)NC(=O)NS(=O)(=O)c1ccccc1N)c1ccc(OC)cc1` [Example 147, (S)-2-(3-((2-aminophenyl)sulfonyl)ureido)-N-ethyl-N-(4-methoxyphenyl)-3-phenylpropanamide] reads below 100 nM; that for `CN(C(=O)[C@H](Cc1ccccc1)NC(=O)NS(=O)(=O)c1ccccc1-c1ccc(F)nc1)c1ccc2c(c1)OCO2` [Example 148, (S)—N-(benzo[d][1,3]dioxol-5-yl)-2-(3-((2-(6-fluoropyridin-3-yl)phenyl)sulfonyl)ureido)-N-methyl-3-phenylpropanamide], 1000 to 10000 nM; that for `CCN(C(=O)[C@H](Cc1ccccc1)NC(=O)NS(=O)(=O)c1cccc(-c2ccco2)c1)c1ccc(OC)cc1` [Example 149], 100 to 1000 nM.
Still for that read-out and setting: the result for `CCN(C(=O)[C@H](Cc1ccccc1)NC(=O)NS(=O)(=O)c1cccc(-c2ccsc2Cl)c1)c1ccc(OC)cc1` [Example 150, (S)-2-(3-((3-(2-chlorothiophen-3-yl)phenyl)sulfonyl)ureido)-N-ethyl-N-ethyl-N-(4-methoxyphenyl)-3-phenylpropanamide] reads 100 to 1000 nM.
Regarding `CCN(C(=O)[C@H](Cc1ccccc1)NC(=O)NS(=O)(=O)c1cccc(-c2ccsc2)c1)c1ccc(OC)cc1` [Example 151, (S)—N-ethyl-N-(4-methoxyphenyl)-3-phenyl-2-(3-((3-(thiophen-3-yl)phenyl)sulfonyl)ureido)propanamide], the EC50 is 100 to 1000 nM under setting [1] and 110 nM under setting [2].
For `CCN(C(=O)[C@H](Cc1ccccc1)NC(=O)NS(=O)(=O)c1cccc(-c2ccnn2C)c1)c1ccc(OC)cc1` [Example 152, (S)—N-ethyl-N-(4-methoxyphenyl)-2-(3-((3-(1-methyl-1H-pyrazol-5-yl)phenyl)sulfonyl)ureido)-3-phenylpropanamide] the same measures were below 100 nM and 90 nM.
As to `CCN(C(=O)[C@H](Cc1ccccc1)NC(=O)NS(=O)(=O)c1cccc(-c2csc3ccccc23)c1)c1ccc(OC)cc1` [Example 153, (S)-2-(3-((3-(benzo[b]thiophen-3-yl)phenyl)sulfonyl)ureido)-N-ethyl-N-(4-methoxyphenyl)-3-phenylpropanamide], the EC50 under setting [1] fell in the range of 100 to 1000 nM.
In the case of `CCN(C(=O)[C@H](Cc1ccccc1)NC(=O)NS(=O)(=O)c1cccc(-c2cc3c(OC)cccc3[nH]2)c1)c1ccc(OC)cc1` [Example 154, (S)—N-ethyl-2-(3-((3-(4-methoxy-1H-indol-2-yl)phenyl)sulfonyl)ureido)-N-(4-methoxyphenyl)-3-phenylpropanamide], the EC50 reads like this: under setting [1], 100 to 1000 nM; under setting [2], 670 nM.

The values are drawn from patent publication US10035760B2, “Inhibitors of human immunodeficiency virus replication” (priority 2013, dated 2018).
